From paper PMC3531252 (EJNMMI Research, 2012)
Several values for one entry are separate records, joined by “and”; a condition that tells them apart may be missing. Identical values can stand only once.

Columns and labels:
GlyT1 [1] = target: T1, GlyT1 (Homo sapiens, UniProt P48067); assay: in vitro whole-hemisphere autoradiography on human brain slices; type: binding; settings: blocker 10 μM
T1 construct: whole-hemisphere autoradiography (ARG) on human brain slices; from tissue; host or cells: post-mortem human brain whole-hemisphere cryosections
T1 sequence (P48067 1-706): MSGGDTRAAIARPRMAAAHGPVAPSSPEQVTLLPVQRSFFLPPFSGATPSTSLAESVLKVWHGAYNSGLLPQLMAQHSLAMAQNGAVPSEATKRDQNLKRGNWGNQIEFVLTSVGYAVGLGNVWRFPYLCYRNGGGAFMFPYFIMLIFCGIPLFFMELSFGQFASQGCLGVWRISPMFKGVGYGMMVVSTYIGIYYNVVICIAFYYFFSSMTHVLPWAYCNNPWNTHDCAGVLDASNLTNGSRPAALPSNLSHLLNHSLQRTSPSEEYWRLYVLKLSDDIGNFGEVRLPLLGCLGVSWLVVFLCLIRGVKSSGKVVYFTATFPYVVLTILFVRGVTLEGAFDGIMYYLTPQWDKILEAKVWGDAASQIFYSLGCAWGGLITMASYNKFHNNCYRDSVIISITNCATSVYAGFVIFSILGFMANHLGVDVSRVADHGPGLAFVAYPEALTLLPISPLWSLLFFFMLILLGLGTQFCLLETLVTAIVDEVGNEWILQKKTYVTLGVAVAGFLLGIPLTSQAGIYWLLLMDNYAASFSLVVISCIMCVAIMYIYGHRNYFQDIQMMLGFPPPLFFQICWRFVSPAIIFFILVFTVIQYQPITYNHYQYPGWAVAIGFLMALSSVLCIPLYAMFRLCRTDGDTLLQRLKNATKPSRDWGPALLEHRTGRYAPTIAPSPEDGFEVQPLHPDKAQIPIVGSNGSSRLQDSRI
Description: Human brains without pathology were obtained from the National Institute of Forensic Medicine, Karolinska Institutet (Stockholm, Sweden) as well as from the Department of Forensic and Insurance Medicine, Semmelweis University, Budapest. […] The sectioning of the brains and the autoradiography experiments were performed at the Department of Clinical Neuroscience, Karolinska Institutet. The cryosectioning took place on a Leica cryomacrocut system (San Marcos, CA, USA) [28, 29]. Horizontal sections (100 μm thick, containing cerebral cortex, white matter, cerebellum, and pons) and coronal sections (100 μm thick, containing cerebral cortex, white matter, putamen, and caudate nucleus) were used. […] For comparison with other GlyT1 radioligands, blocking was also made with SSR504734 (10 μM). The slices were rinsed thrice for 3 min each with cold (5°C) washing buffer (120 mM NaCl, 50 mM Tris–HCl, pH = 7.5) and subsequently dipped into cold water. The slides were then placed on an imaging plate (Fujifilm Plate BAS-TR2025, Fujifilm, Tokyo, Japan) for 20 min. The plates were developed, and the resulting images were processed in a Fujifilm BAS-5000 phosphorimager (Fujifilm, Tokyo, Japan). […] The autoradiography (ARG) signal's optical density was measured using Multi Gauge 3.2 image analysis software (Fujifilm, Tokyo, Japan).

GlyT1 [2] = assay: GlyT1 occupancy and VND by Lassen plot, PET in rhesus monkeys; type: in vivo, rhesus monkey; settings: for GlyT1 occupancy: seven regions
Description: PET measurements were performed for 123 min immediately after i.v. injection of radioligand at baseline and after pretreatment with SSR504734. SSR504734 was administered over 15 min, starting 30 min before the radioligand injection. PET measurements were performed on two separate days with two monkeys. One baseline PET measurement and one PET measurement after pretreatment with 1.5 mg/kg of SSR504734 were performed on one monkey. One baseline PET measurement and one PET measurement after pretreatment with 4.5 mg/kg were performed on the other monkey.
GlyT1 occupancy was estimated by applying Lassen plot approach, which can determine nondisplaceable distribution volume (VND) and occupancy using VT values at baseline and after pretreatment. Seven regions (the pons, cerebellum, putamen, frontal cortex, caudate, anterior cingulate cortex, and temporal cortex) were used for the plot.

- reduction of [11C]N-methyl-SSR504734 binding by blocker (GlyT1 [1]): prominent in the white matter and pons
Structure (SMILES): O=C(N[C@@H](c1ccccc1)[C@@H]1CCCCN1)c1cccc(C(F)(F)F)c1Cl [SSR504734, reference compound]
- GlyT1 occupancy (GlyT1 [2]; 1.5 mg/kg SSR504734, rhesus monkey 1, Lassen plot): 45% and 45.2%
- GlyT1 occupancy (GlyT1 [2]; 4.5 mg/kg SSR504734, rhesus monkey 2, Lassen plot): 74.3%
- Kd of occupancy-dose relationship (GlyT1 [2]; Omax assumed 100%): 1.7 mg/kg
